Assay results reported in US12378193B2, “Anti-arrhythmicity agents” (The Regents of the University of California, priority 2014, dated 2025).

Columns and labels:
[1] = tested on: zebrafish tremblor (tre) embryos; assay: Cardiac performance (line-scan fractional shortening, heart rate) of tremblor embryos; type: in vivo
Protocol: Movies of GFP-labelled myl7:GFP hearts were taken at 30 frames per second. Line-scan analysis was performed along a line through the atria or the ventricles of these hearts (Nguyen et al., 2009, Drug Discovery Today: Disease Models 5). Fraction of shortening was deduced from the ratio of diastolic and systolic width and heart rate was determined by beats per minute. Cardiac parameters were analyzed in tremblor^tc318 and VDAC2^LA2256 at 2 dpf.

[2] = tested on: VDAC2; assay: Affinity bead pull down from zebrafish embryo lysate with mass spectrometry; type: binding; details: zebrafish embryonic lysate, affinity agarose beads
Protocol: For pull down assays mono-N-Boc protected 2,2′-(ethylenedioxy)bis(ethylamine) was attached to the carboxylic ester of efsevin and its derivatives through the amide bond. After removal of the Boc group using TFA, the primary amine was coupled to the carboxylic acid of Affi-Gel 10 Gel (Biorad). Two-day-old zebrafish embryos were deyolked by centrifugation before being lysed with Rubinfeld's lysis buffer (Rubinfeld et al., 1993, Science 262, 1731-1734). The lysate was precleaned by incubation with Affi-Gel 10 Gel to eliminate non-specific binding. Precleaned lysate was incubated with affinity beads overnight. Proteins were eluted from the affinity beads and separated on SDS-PAGE. Protein bands of interest were excised. Gel plugs were dehydrated in acetonitrile (ACN) and dried completely in a Speedvac. Samples were reduced and alkylated with 10 mM dithiotreitol and 10 mM TCEP solution in 50 mM NH4HCO3 (30 min at 56° C.) and 100 mM iodoacetamide (45 min in dark), respectively. Gel plugs were washed with 50 mM NH4HCO3, dehydrated with ACN, and dried down in a Speedvac. Gel pieces were then swollen in digestion buffer containing 50 mM NH4HCO3, and 20.0 ng/μL of chymotrypsin (25° C., overnight). Peptides were extracted with 0.1% TFA in 50% ACN solution, dried down and resuspended in LC buffer A (0.1% formic acid, 2% ACN).
Extracted peptides were analyzed by nano-flow LC/MS/MS on a Thermo Orbitrap with dedicated Eksigent nanopump using a reversed phase column (New Objective). The flow rate was 200 nL/min for separation: mobile phase A contained 0.1% formic acid, 2% ACN in water, and mobile phase B contained 0.1% formic acid, 20% water in ACN. The gradient used for analyses was linear from 5% B to 50% B over 60 min, then to 95% B over 15 min, and finally keeping constant 95% B for 10 min. Spectra were acquired in data-dependent mode with dynamic exclusion where the instrument selects the top six most abundant ions in the parent spectra for fragmentation. […]

[3] = tested on: V1/V3 DKO MEFs; assay: Mitochondria Ca2+ uptake assay in VDAC1/VDAC3 double knockout MEFs; type: cell-based
Protocol: V1/V3 DKO MEFs were cultured as previously described (Roy et al., 2009a, EMBO Rep 10, 1341-1347). Efsevin-treated (15 μM for 30 min) or mock-treated MEFs were used for measurements of [Ca^2+]c in suspensions of permeabilized cells or imaging of [Ca^2+]m simultaneously with [Ca^2+]c in intact single cells. Permeabilization of the plasma membrane was performed by digitonin ([…]). Changes in [Ca^2+] in the cytoplasmic buffer upon IP3 (7.5 μM) addition in the presence or absence of ruthenium red (3 μM) was measured by fura2 in a fluorometer (Csordas et al., 2006, J Cell Biol 174, 915-921; Roy et al., 2009b, Mol Cell 33, 377-388). To avoid endoplasmic reticulum Ca^2+ uptake 2 μM thapsigargin was added before IP3. For imaging of [Ca^2+]m and [Ca^2+]c, MEFs were co-transfected with plasmids encoding polycistronic zebrafish VDAC2 with mCherry and mitochondria-targeted inverse pericam for 40 hours. Cells were sorted to enrich the transfected cells and attached to glass coverslips. In the final 10 min, of the efsevin or mock-treatment, the cells were also loaded with fura2AM (2.5μ[…]) and subsequently transferred to the microscope stage. Stimulation with 1 μM ATP was carried out in a norminally Ca^2+ free buffer. […]

[4] = tested on: murine ventricular cardiomyocytes; assay: Ca2+ imaging (transients, sparks, waves) in isolated cardiomyocytes; type: cell-based
Protocol: Murine ventricular cardiomyocytes were isolated as previously described (Reuter et al., 2004, J Physiol 554, 779-789). Cells were loaded with 5 μM fluo-4 AM in external solution containing: 138.2 mM NaCl, 4.6 mM KCl, 1.2 mM MgCl, 15 mM glucose, 20 mM HEPES for 1 hr and imaged in external solution supplemented with 2, 5 or 10 mM CaCl2). For the recording of Ca^2+ sparks and transients, the external solution contained 2 mM CaCl2. For Ca^2+ transients, cells were field stimulated at 0.5 Hz with a 5 ms pulse at a voltage of 20% above contraction threshold. For all measurements, efsevin was added 2 hours prior to the actual experiment. Images were recorded on a Zeiss LSM 5 Pascal confocal microscope. Data analysis was carried out using the Zeiss LSM Image Browser and ImageJ with the SparkMaster plugin (Picht et al., 2007, Am J Physiol Cell Physiol 293, C1073-1081). Cells were visually inspected prior to and after each recording. Only those recordings from healthy looking cells with distinct borders, uniform striations and no membrane blebs or granularity were included in the analysis.

[5] = paced at 0.5 Hz, % of vehicle-treated

## CCOC(=O)C1=CCN(S(=O)(=O)c2ccc(C)cc2)C1c1ccccc1 (stereo not shown) [efsevin]
[1]; efsevin-treated tre embryos
  heart rate: 46±2 beats per minute (bpm)
[1]; efsevin-treated tre embryos, 2 dpf, % of wild-type heart rate
  heart rate restored, relative to wild-type/controls: approximately 40%
[1]; tre + efsevin, 48 hpf
  Atrial FS: 33±2%
  Ventricular FS: 35±3%
[2]
  pull down of the 32 kD band (VDAC2): pulled down
[3]; intact V1/V3 DKO MEFs, stimulation with ATP
  transfer of Ca2+ released from intracellular stores into mitochondria: accelerated the transfer of Ca^2+
[3]; permeabilized V1/V3DKO MEFs, efsevin 15 μM for 30 min, 7.5 μM IP3
  Ca2+ transferred into mitochondria during IP3-induced Ca2+ release: increased the amount of Ca^2+ transferred into mitochondria
[4]; 1 μM efsevin
  spontaneous Ca2+ waves spanning more than half of the entire cell: approximately half
[4]; 10 μM efsevin
  spontaneous Ca2+ waves spanning more than half of the entire cell: further reduced
[4]; 25 μM efsevin
  spontaneous Ca2+ waves spanning more than half of the entire cell: almost entirely blocked
[4]; % of vehicle-treated
  decay phase of the single spark: 82.5±2.1%
  maximum spark amplitude: 101.6±2.5%
  total duration of the spark: 85.7±2%
  total width of the spark: 89.5±1.4%
[4]; efsevin compared to vehicle-treated
  Ca2+ spark frequency: 101.1±7.7%
[4]; [5]
  Ca2+ transient rate of decay: 82.8±4%
  Ca2+ transient time to peak: 95±3.9%
[4]; paced at 0.5 Hz, efsevin-treated as % of vehicle-treated
  Ca2+ transient amplitude: 98.6±4.5%
[4]; sparks, % of vehicle-treated
  Ca2+ release flux: 98.7±2.8%
